This is an account of results in ChEMBL document CHEMBL1146911, “Synthesis and SAR of conformationally restricted inhibitors of soluble epoxide hydrolase” (Bioorg Med Chem Lett, 2006).

pIC50: −log10 of the molar value.

Test system in one series: not listed separately
The experiment in a line: AUC in dog at 0.3 mg/kg, po. The class given is ADME, organism-based, Canis lupus familiaris. Also noted: dose 0.3 mg/kg, route oral. To be noted: plasma.
Broadly, the AUC is the area under the concentration-time curve, a measure of exposure. Low readings indicate low exposure, high ones high exposure. For `O=C(NC1CCN(C(=O)c2ccccn2)CC1)NC12CC3CC(CC(C3)C1)C2`, the AUC was 0.0783 µM·h.

In the case of `O=C(NC1CCN(C(=O)c2ccccc2)CC1)NC12CC3CC(CC(C3)C1)C2`, the AUC was 0.0102 µM·h.

`CCC(=O)N1CCC(NC(=O)NC23CC4CC(CC(C4)C2)C3)CC1` gave an AUC of 0.108 µM·h.

In the case of `O=C(NCC1CCN(C(=O)c2ccccc2)CC1)NC12CC3CC(CC(C3)C1)C2`, the AUC is 0.0055 µM·h.

In the case of `CC(=O)N1CCC(CNC(=O)NC23CC4CC(CC(C4)C2)C3)CC1`, the AUC is 0.0917 µM·h.

As for `O=C(O)CCCCCCCCCCCNC(=O)NC12CC3CC(CC(C3)C1)C2`, the AUC was 0.0517 µM·h.

On to `CC(=O)N1CCC(NC(=O)NC23CC4CC(CC(C4)C2)C3)CC1` [AR9281], for which the AUC is 0.617 µM·h.

Turning to `CCCC(=O)N1CCC(NC(=O)NC23CC4CC(CC(C4)C2)C3)CC1`, the AUC was 0.0417 µM·h.

In turn, `O=C(NC1CCN(C(=O)C(F)(F)F)CC1)NC12CC3CC(CC(C3)C1)C2` had an AUC of 0.055 µM·h.

The target in the next series is T1, Bifunctional epoxide hydrolase 2 (Homo sapiens, UniProt P34913).
T1 sequence (P34913 whole entry): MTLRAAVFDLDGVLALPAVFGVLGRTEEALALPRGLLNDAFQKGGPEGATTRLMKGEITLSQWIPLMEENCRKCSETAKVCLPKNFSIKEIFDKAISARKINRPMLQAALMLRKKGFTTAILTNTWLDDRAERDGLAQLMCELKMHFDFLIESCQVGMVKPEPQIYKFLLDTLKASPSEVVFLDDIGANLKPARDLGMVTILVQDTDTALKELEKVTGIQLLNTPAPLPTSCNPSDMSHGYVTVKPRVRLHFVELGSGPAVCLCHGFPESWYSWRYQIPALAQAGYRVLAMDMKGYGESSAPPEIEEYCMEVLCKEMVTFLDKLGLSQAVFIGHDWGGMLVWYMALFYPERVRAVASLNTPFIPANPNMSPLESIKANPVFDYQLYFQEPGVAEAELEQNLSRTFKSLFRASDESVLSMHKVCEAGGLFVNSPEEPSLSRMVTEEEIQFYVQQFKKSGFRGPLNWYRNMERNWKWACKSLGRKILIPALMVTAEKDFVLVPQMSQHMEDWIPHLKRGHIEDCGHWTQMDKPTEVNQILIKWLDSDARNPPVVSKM
Conditions: not given
In general, pIC50 refers to the IC50 on a negative log10 scale, so that one unit is a factor of ten. Read a low pIC50 as a large IC50. Consider `O=C(NCC1CCN(C(=O)c2cccnc2)CC1)NC12CC3CC(CC(C3)C1)C2`, for which the pIC50 is 8.27.

Molecule `O=C(NCC1CCN(C(=O)c2ccncc2)CC1)NC12CC3CC(CC(C3)C1)C2` gave a negative logarithm of the IC50 (pIC50) of 8.14.

On to `O=C(NCC1CCN(C(=O)c2cccc(C(=O)O)c2)CC1)NC12CC3CC(CC(C3)C1)C2`, for which the pIC50 was 7.37.

In turn, `O=C(NC1CCN(C(=O)c2cccnc2)CC1)NC12CC3CC(CC(C3)C1)C2` had a pIC50 of 8.77.

In turn, `O=C(NC1CCN(C(=O)c2ccncc2)CC1)NC12CC3CC(CC(C3)C1)C2` showed a pIC50 of 8.68.

With `O=C(O)CCCC(=O)N1CCC(CNC(=O)NC23CC4CC(CC(C4)C2)C3)CC1`, the pIC50 was 7.39.

The molecule `O=C(NCC1CCN(C(=O)c2ccccc2C(=O)O)CC1)NC12CC3CC(CC(C3)C1)C2` showed a pIC50 of 6.40.
